Values of other authors in patent US20020032197A1 (priority 1998, published 2002).

Experiments:
[1] = test system: healthy volunteers exposed to an acute nociceptive stimulus; details: single oral dosing, 10 healthy volunteers
MAO-A [2] = target: T1, MAO-A (Homo sapiens, UniProt P21397)
T1 sequence (P21397 1-527): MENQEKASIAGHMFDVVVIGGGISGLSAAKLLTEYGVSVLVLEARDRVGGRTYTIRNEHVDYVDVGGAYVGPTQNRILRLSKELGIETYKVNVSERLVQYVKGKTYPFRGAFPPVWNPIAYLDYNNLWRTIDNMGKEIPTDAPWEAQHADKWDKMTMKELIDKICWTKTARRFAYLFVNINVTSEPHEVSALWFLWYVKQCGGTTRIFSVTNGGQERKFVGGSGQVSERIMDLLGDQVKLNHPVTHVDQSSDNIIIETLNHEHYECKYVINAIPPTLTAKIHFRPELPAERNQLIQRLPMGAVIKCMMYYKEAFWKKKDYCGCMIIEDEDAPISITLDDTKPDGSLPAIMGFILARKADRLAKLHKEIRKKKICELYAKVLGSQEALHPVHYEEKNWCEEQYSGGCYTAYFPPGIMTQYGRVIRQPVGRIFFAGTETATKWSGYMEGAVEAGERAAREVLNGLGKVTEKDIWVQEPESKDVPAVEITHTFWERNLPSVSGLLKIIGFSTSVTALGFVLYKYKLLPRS

benzodiazepine receptors = details: in vitro
adrenergic receptors = details: in vitro
monoamine metabolism = details: humans
dopaminergic receptors = details: in vitro
[3] = test system: sleep of healthy volunteers
[4] = doses as high as 600 mg daily
opioid receptors = details: in vitro
MAO-A [5] = target: T1, MAO-A; details: ex vivo
young healthy adults = details: 5 mg dose
individuals with RSBD = details: in vivo
MAO-A [6] = target: T1, MAO-A; remark: listed apart in the source
women with PMS = details: in vivo
[7] = fluoxetine, bupropion and placebo compared

## COCCCC/C(=N\OCCN)c1ccc(C(F)(F)F)cc1 [fluvoxamine]
[1]
  antinociceptive effect: antinociceptive effect

## O=C(NCCN1CCOCC1)c1ccc(Cl)cc1 [moclobemide, p-chloro-N-(2-morpholinoethyl)-benzamide]
[1]
  antinociceptive effect: antinociceptive effect
MAO-A [2]
  in vitro binding to MAO-A: weak
Benzodiazepine receptors
  affinity for benzodiazepine receptors: no appreciable affinity
Adrenergic receptors
  affinity for adrenergic receptors: no appreciable affinity
Monoamine metabolism
  plasma levels of homovanillic acid, 3,4-dihydroxyphenylacetic acid, 3-methoxy-4-hydroxyphenylglycol and 5-hydroxyindoleacetic acid: reductions
Dopaminergic receptors
  affinity for dopaminergic receptors: no appreciable affinity
[3]
  effects on sleep in comparison to other MAO inhibitors: weak
[4]
  tolerability: well-tolerated
Opioid receptors
  affinity for opioid receptors: no appreciable affinity
After multiple administrations
  bioavailability: approx. 85%
In vivo
  number of different metabolites: at least 19
Patients with hepatic dysfunction
  elimination: impaired
single-dose oral administration
  absorption: almost completely absorbed
MAO-A [5]
  time to recovery of enzyme activity (reversible binding): ≤ 16 h

## CN[C@H]1CC[C@@H](c2ccc(Cl)c(Cl)c2)c2ccccc21 [sertraline]
Women with PMDD; versus placebo
  treatment of PMDD, symptomatic improvement and change in reported functional impairment: significantly better than placebo

## COc1ccc2[nH]cc(CCNC(C)=O)c2c1 [Melatonin]
Young healthy adults
  sleep propensity and duration of sleep: increased sleep propensity and the duration of sleep

## CNCCCN1c2ccccc2CCc2ccccc21 [desipramine]
[1]
  antinociceptive effect: antinociceptive effect

## O=C1CN=C(c2ccccc2Cl)c2cc([N+](=O)[O-])ccc2N1 [clonazepam]
Individuals with RSBD
  cases of RSBD in which effective: approximately 90%

## NNCCc1ccccc1 [phenelzine]
PTSD patients; Frank et al.
  reduction of PTSD symptoms versus placebo: superior to placebo
PTSD patients; open trial (Davidson et al.)
  PTSD patients helped: 8 of 11
PTSD patients; open trial, 5 patients, after failing antipsychotics, tricyclics and psychotherapy
  response of patients with traumatic war neuroses: responded positively
PTSD patients; treated openly for 4 to 18 weeks (Lerer et al.)
  clinical improvement in PTSD patients: only modest clinical improvement

## CC(NC(C)(C)C)C(=O)c1cccc(Cl)c1 (stereo not shown) [bupropion]
Women with PMDD; [7]
  efficacy and patient satisfaction in women with PMDD: some improvement

## O=C(NCC[N+]1([O-])CCOCC1)c1ccc(Cl)cc1 [moclobemide-N-oxide, p-chloro-N-(2-morpholinoethyl)-benzamide-N′-oxide]
MAO-A [6]
  MAO-A inhibitory activity: MAO-A inhibitory activity

## CNCCC(Oc1ccc(C(F)(F)F)cc1)c1ccccc1 (stereo not shown) [fluoxetine]
Women with PMS
  treatment of a range of symptoms in women with PMS: effective and well-tolerated
Women with PMDD; [7]
  efficacy and patient satisfaction in women with PMDD: greater
  tolerability in women with PMDD: well tolerated
